# Reference: PMC8708875 (Pharmaceutics, 2021)
# Test system: differentiated C2C12 myotubes
# Experiment: qPCR gene expression in differentiated C2C12 myotubes
# Assay type: cell-based, mouse
# Conditions: Ric peptides 100 µM, insulin positive control, qPCR normalised to GAPDH, control = 1, mean ± SEM
# Procedure: C2C12 cells were used as a well-described model of skeletal muscle to evaluate the effect of peptides in gene expression, cell signaling, and glucose uptake. These cells were kindly provided by Prof. Patricia Brum, School of Physical Education and Prof. Anselmo Moriscot, Biomedical Science Institute, University of São Paulo, São Paulo, Brazil. C2C12 cells were cultured and maintained in high glucose Dulbecco's modified Eagle's medium (DMEM; Thermo Fisher Scientific, São Paulo, SP, Brazil) supplemented with 10% fetal bovine serum (FBS), 100 U/mL penicillin, and […] streptomycin in a humidified atmosphere of 5% CO2 at 37 °C. The cells were used in low pass (between passages 2 and 4) for all experiments to maintain the potential for differentiation of cultures. Cells grown to approximately 70% confluence in T75 culture flasks were treated with trypsin and seeded in various P100 culture dishes. Cells were then cultured in the presence of 10% FBS until they reach about 90% confluence, at which point the medium was replaced with DMEM containing 2% horse serum for the induction of differentiation in myotubes. During this time, the fused myoblasts formed elongated, multi-nucleated myotubes, and within 7 days more than 95% of the cells already fused into myotubes. Cultures of C2C12 were treated with phosphate buffer saline (137 mM NaCl, 2.7 mM KCl, 10 mM Na2HPO4, and 1.8 mM KH2PO4, pH 7.4; PBS; control), insulin or […], for the indicated period of time. From these treatments the cells were processed for molecular analyses. Real-time PCR (qPCR) experiments were performed to evaluate the mRNA expression levels, at basal and under stimulus, for peroxisome proliferator activator receptor gamma (PPARγ), peroxisome proliferator activator receptor […] responsive element binding protein 1 (Creb1), aldolase A, fructose-bisphosphate (ALDOA), cytochrome c oxidase subunit IV isoform 1 (Cox4i1), phosphoglycerate mutase 2 (PGAM2), troponin I, skeletal, fast 2 (TNNI2), […] (TNNT3), small muscle protein X-linked (SMPX), myosin, […] (MYH1), insulin-growth factor 1 (IGF1), Glucose transporter 4 (GLUT4), and lipoprotein lipase (LPL). Primers sequences are described in Supplementary Materials (Table S1). Cells were homogenized and total RNA extracted using Trizol according to the manufacturer's instructions (TRIzol, Life Technologies, Rockville, MD, USA). After extraction of RNA, all samples were purified and treated with DNAse using RNeasy Mini Kit (Qiagen, Foster City, CA, USA). The integrity of the RNA was verified by 1% agarose gel electrophoresis stained with ethidium bromide and visualized in ultraviolet light. […] The standard curves for all the primers used herein were previously constructed to determine the efficiency of the amplification of the target and reference genes. Quantitative PCRs were performed using the Prism 7900 sequence detection system (Applied Biosystems, Foster City, CA, USA) with 100 nM primer and 20 ng cDNA. The expression of mRNA targets was normalized by expression of gene glyceraldehyde 3-phosphate dehydrogenase (GAPDH) or hipoxantina-guanina fosforibosiltransferase (HPRT) and expressed as relative values using the 2 DDCt method. The expression levels of target genes were normalized with housekeeping genes GAPDH or HPRT, and alterations were expressed relative to control unstimulated cells. […] Therefore, the possible effects of Ric1-Ric4 (100 μM) on gene expression were evaluated. For all these experiments, insulin was used as “gold standard”/positive control, and GAPDH expression was used as normalization control (Table 2, Control “1”/100%). Relative to GAPDH expression, insulin increased the expression of all genes evaluated (Table 1). […]
substance,measurement,value
"LASVSTVLTSKYR [Ric4, intracellular peptide derived from hemoglobin alpha subunit, last 13 C-terminal amino acids]","relative expression of Aldolase A, fructose-bisphosphate (ALDOA)",4.22 ± 0.74
same,relative expression of Cytochrome c oxidase subunit IV isoform 1 (Cox4i1),1.41 ± 1.12
same,relative expression of Peroxisome proliferator activator receptor gamma (PPARγ),1.21 ± 1.02
same,relative expression of Phosphoglycerate mutase 2 (PGAM2),2.65 ± 0.87
same,relative expression of Small muscle protein X-linked (SMPX),3.21 ± 0.99
same,"relative expression of Troponin I, skeletal, fast 2 (TNNI2)",3.14 ± 0.65
same,"relative expression of Troponin I, skeletal, fast 3 (TNNT3)",2.38 ± 0.72
same,relative expression of cAMP responsive element binding protein 1 (Creb1),1.03 ± 0.85
Insulin,"relative expression of Aldolase A, fructose-bisphosphate (ALDOA)",7.65 ± 0.96
same,relative expression of Cytochrome c oxidase subunit IV isoform 1 (Cox4i1),6.71 ± 1.24
same,relative expression of Peroxisome proliferator activator receptor gamma (PPARγ),6.98 ± 1.23
same,relative expression of Phosphoglycerate mutase 2 (PGAM2),8.26 ± 0.99
same,relative expression of Small muscle protein X-linked (SMPX),5.96 ± 0.98
same,"relative expression of Troponin I, skeletal, fast 2 (TNNI2)",6.36 ± 1.13
same,"relative expression of Troponin I, skeletal, fast 3 (TNNT3)",6.22 ± 0.98
same,relative expression of cAMP responsive element binding protein 1 (Creb1),6.48 ± 1.08
